Reference: paper PMC4805251, “Novel Antimicrobial Peptides EeCentrocins 1, 2 and EeStrongylocin 2 from the Edible Sea Urchin Echinus esculentus Have 6-Br-Trp Post-Translational Modifications” (PLoS ONE, 2016)

Assays:
Type in all cases: cell-based
[1] = system: Candida albicans (ATCC 10231); settings: ATCC 10231, 24 h
Method: (§1) The synthetic peptides (see section 2.11) were also screened for antifungal activity against Candida albicans (ATCC 10231), Saccharomyces cerevisiae, Rhodotorula sp., Aureobasidium pullulans and Cladosporium sp. The antifungal assay was performed as described previously. Briefly, fungal spores were dissolved in potato dextrose broth (Difco, Lawrence, KS, USA) to a concentration of 4 × 10^5 spores/ml. The spores (50 μl) were inoculated on 96-well Nunclon^TM microtiter plates containing the synthetic peptides (50 μl) dissolved in MQ-H2O. […] MIC was defined as the lowest concentration of peptide giving no visible fungal growth. The negative (growth) control contained medium and fungal solution.
(§2) ACN-phases and SPE eluates were tested with two-fold serial dilutions ranging from 5.0 to 0.005 mg/ml (5.0, 2.5, 1.25, 0.63, 0.31, 0.16, 0.08, 0.04, 0.02, 0.01, 0.005 mg/ml) whereas HPLC-fractions were tested undiluted for antibacterial activity. Pure, native peptides and synthetic peptides (described in section 2.11) were tested for antimicrobial activity in concentrations ranging from 100 to 0.1 μM in two-fold serial dilutions (100, 50, 25, 12.5, 6.25, 3.13, 1.56, 0.78, 0.39, 0.20, 0.10 μM). Antimicrobial assays involving natural peptides (i.e. fractionated natural material) were run only once due to limited quantities, whereas all other assays were run in triplicates.

Aureobasidium pullulans = settings: 24 h
Method: as §1, §2

Saccharomyces cerevisiae = settings: 24 h
Method: as §1, §2

Cladosporium sp. = settings: 24 h
Method: as §1, §2

Rhodotorula sp. = settings: potato dextrose broth, 24 h at room temperature, visual, no visible fungal growth; value of Table 2; triplicates
Method: as §1, §2

[2] = system: S. epidermidis #1 (5179-R1); settings: #1 (5179-R1, 24 h)
Source text: (§3) Organic phase extract, SPE eluates and HPLC-fractions were screened for antibacterial activity against two strains of Gram-positive and two strains of Gram-negative bacteria; Corynebacterium glutamicum (ATCC 13032), Staphylococcus aureus (ATCC 9144), Pseudomonas aeruginosa #1 (ATCC 27853) and Escherichia coli #1 (ATCC 25922). For extended antimicrobial bioactivity screening, the following bacterial strains were used, three strains of Gram-positive bacteria; S. epidermidis #1 (5179-R1) kindly provided by Holger Rohde, S. epidermidis #2, RP62A (ATCC 35984) and Bacillus subtilis (ATCC 23857) in addition to the Gram-negative P. aeruginosa #2, PA 01 (ATCC 15692, DSM 19880) and E. coli #2, NR 698 (MC4100/ptD4213).
(§4) Cultures stored at -80°C were smeared onto agar plates and cultured for 24 h at 35°C. One colony of each bacterial strain was transferred to 5 ml liquid Müller-Hinton (MH, Difco, Lawrence, KS, USA) medium in a glass tube and left shaking at room temperature overnight at 600 rpm. The cultures of actively growing bacteria (20 μl) were further inoculated in 5 ml MH medium and left shaking for 2 h at room temperature. The antibacterial assays were performed as previously described by. Briefly, the bacterial cultures were diluted with medium to 1.3–1.5 × 10^4 bacteria/ml final concentrations and an aliquot of 50 μl was added to each well in 96-well Nunclon^TM microtiter plates (Nagle Nunc Int., Denmark) preloaded with 50 μl test sample solutions, i.e. extracts, eluates or peptides.
(§5) The test plates were incubated for 24 h at 35°C with optical density (OD595) recorded every hour using an Envision 2103 multilabel reader, controlled by the Wallac Envision manager (PerkinElmer, CT, USA). Antibacterial activity was defined as a sample showing >90% inhibition (as measured by optical density) compared to the negative (growth) controls, consisting of bacteria and water. Oxytetracycline (20 μM) served as a positive (inhibition) control. The minimum inhibitory concentration (MIC) was defined as the lowest concentration of a sample displaying >90% inhibition.
as §2

[3] = system: Corynebacterium glutamicum (ATCC 13032); settings: ATCC 13032, 24 h
Source text: as §3, §4, §5, §2

[4] = system: S. epidermidis #2, RP62A (ATCC 35984); settings: ATCC 35984, 24 h
Source text: as §3, §4, §5, §2

[5] = system: Pseudomonas aeruginosa #1 (ATCC 27853); settings: ATCC 27853, 24 h
Source text: as §3, §4, §5, §2

[6] = system: E. coli #2, NR 698 (MC4100/ptD4213); settings: MH medium, 24 h at 35°C, OD595, >90% inhibition; value of Table 2; triplicates
Source text: as §3, §4, §5, §2

[7] = system: P. aeruginosa #2, PA 01 (ATCC 15692, DSM 19880); settings: ATCC 15692, 24 h
Source text: as §3, §4, §5, §2

[8] = system: Staphylococcus aureus (ATCC 9144); settings: ATCC 9144, 24 h
Source text: as §3, §4, §5, §2

[9] = system: Escherichia coli #1 (ATCC 25922); settings: ATCC 25922, 24 h
Source text: as §3, §4, §5, §2

[10] = system: Bacillus subtilis (ATCC 23857); settings: ATCC 23857, 24 h
Source text: as §3, §4, §5, §2

human red blood cells = assay: Haemolytic activity assay
Method: Synthesised peptide analogues of EeCentrocin 1 and 2 were screened for eukaryotic cell-toxicity with a haemolytic activity assay using human red blood cells as described previously. The assay was performed on 96-well U-shaped microtiter plates (Nagle Nunc) with 50 μl peptide sample, 40 μl phosphate-buffered saline (PBS) and 10 μl red blood cells. The final peptide concentrations ranged from 100 to 0.1 μM in two-fold serial dilutions. After one hour of incubation at 37°C in a shaker, the plate was centrifuged at 200 g for 5 min and the supernatants (60 μl) were carefully transferred to a new flat-bottomed polycarbonate microtiter plate (Nagle Nunc) and absorbance at 550 nm was measured on a Synergy H1 multimode reader (BioTek, VT, USA). Cell suspension added 0.05% Triton X-100 (Sigma-Aldrich, MO, USA) in PBS served as positive (100% haemolysis) control and cell suspension added PBS served as negative (0% haemolysis) control. The percent haemolysis was calculated using the formula [(Asample-Abaseline)/(Atriton-Abaseline)]×100. The experiment was performed in duplicates.

CC[C@H](C)[C@H](NC(=O)[C@@H](N)CC(=O)O)C(=O)NCC(=O)N[C@@H](CCCCN)C(=O)N[C@@H](Cc1ccc(O)cc1)C(=O)N[C@@H](CS)C(=O)NCC(=O)N[C@@H](Cc1ccc(O)cc1)C(=O)N[C@@H](C)C(=O)N[C@@H](Cc1c[nH]cn1)C(=O)N[C@@H](C)C(=O)N[C@@H](CC(C)C)C(=O)N[C@@H](CC(N)=O)C(=O)O (stereo in doubt) [EeCentrocin 1 LC]
>100 µM: MIC C. albicans [1] | MIC A. pullulans (Aureobasidium pullulans) | MIC S. cerevisiae (Saccharomyces cerevisiae) | MIC Cladosporium sp. (Cladosporium sp.) | MIC Rhodotorula sp. (Rhodotorula sp.) | MIC S. epidermidis #1 [2] | MIC C. glutamicum [3] | MIC S. epidermidis #2 [4] | MIC P. aeruginosa #1 [5] | MIC E. coli #2 [6] | MIC P. aeruginosa #2 [7] | MIC S. aureus [8] | MIC E. coli #1 [9] | MIC B. subtilis [10]

Triton X-100 [Lysis (0.05% Triton X-100), reference compound]
0.24: Absorbance at 550nm, lysis control (human red blood cells)
